In patent publication US20120028917A1, “Use Of N-(4-((3-(2-Amino-4-Pyrimidinyl)-2-Pyridinyl)Oxy)Phenyl)-4-(4-Methyl-2-Thienyl)-1-Phthalazinamine In The Treatment Of Antimitotic Agent Resistant Cancer” (Amgen Inc., priority 2009, published 2012):

Legend:
[1] = tested on: HCT116 parental; experiment: Colony formation assay (FIG. 6-B); format: cell-based, human; conditions: 48 hours treatment, re-plated drug-free
Protocol: Cells were grown until the DMSO control wells were confluent. Cells were stained with crystal violet dye (Sigma), washed with distilled water, and imaged using a digital scanner (Hewlett-Packard). Colony formation assay was performed with HCT116 cell lines (parental and AZD1152-resistant). Cells were treated with DMSO, AMG 900, AZD1152, or paclitaxel at the indicated concentrations for 48 hours and re-plated in complete media lacking the inhibitor. After the DMSO-treated cells reached confluence, the cells were stained with crystal violet and imaged (duplicate wells).

[2] = tested on: MDR tumor cell lines expressing either P-gp or BCRP; experiment: p-histone H3 / polyploidy in MDR tumor cell lines (summary); format: cell-based; conditions: Homo sapiens; all cell lines tested irrespective of P-gp or BCRP status; read-out: IC50 or EC50 values (p-histone H3 inhibition or polyploidy)
Protocol: All high-content cell assays were performed on an ArrayScan VTi HCS Reader (Cellomics). Tumor cell lines were treated with AMG 900, AZD1152, MK-0457, or PHA-739358 (concentration range varied based on potency). The cells were prepared for intracellular staining with an anti-p-histone H3 Ser^10 antibody as previously described (1). Detection was performed with an anti-rabbit IgG-alexa-568 antibody and DAPI. The cellular levels of p-histone H3 were analyzed using Target Activation V2 algorithm (Cellomics) to determine the percentage of positive cells. For the imaging assays, the concentration-response curves and corresponding IC50 and EC50 values were calculated using the percentage of cells affected versus the DMSO control.
Tumor cells were treated with AMG 900, AZD1152, MK-0457, or PHA-739358 (range concentration varied based on potency) for 24 hours and processed for cell-cycle analysis (DNA staining only) as previously described (1). Cells were analyzed on a LSRII flow cytometer using BD FACS Diva software. The concentration-response curves and corresponding EC50 values were calculated using the percentage of cells with ≧4N DNA content versus the DMSO control.

[3] = tested on: HCT116 AZD1152-resistant; experiment: Colony formation assay (FIG. 6-B); format: cell-based, human; conditions: HCT116 AZD1152-resistant; 48 hours treatment, re-plated drug-free
Protocol: Tumor cell lines were obtained from the American Type Culture Collection (ATCC) unless otherwise specified. The MDA-MB-231-PTX and NCI-H460-PTX cell lines were established by growing the cells in the presence of increasing concentrations of paclitaxel over a period of 6 months. The HCT116 AZD1152-resistant cell line was established by growing the cells in the presence of AZD1152 at 80 nmol/L. Tumor cells were treated with AMG 900, paclitaxel or AZD1152 (0.5, 5, 50 nmol/L) for 48 hours, washed twice with complete media, and cells were re-plated at a density of 5000 cells per well in drug-free complete media. Cells were grown until the DMSO control wells were confluent. Cells were stained with crystal violet dye (Sigma), washed with distilled water, and imaged using a digital scanner (Hewlett-Packard). Colony formation assay was performed with HCT116 cell lines (parental and AZD1152-resistant). Cells were treated with DMSO, AMG 900, AZD1152, or paclitaxel at the indicated concentrations for 48 hours and re-plated in complete media lacking the inhibitor. After the DMSO-treated cells reached confluence, the cells were stained with crystal violet and imaged (duplicate wells).

[4] = tested on: MOLT-4; experiment: Multiparameter cell cycle DNA content assay (flow cytometry); format: cell-based; conditions: Homo sapiens; MOLT-4, T cell leukemia; 48 hours without compound withdrawal; read-out: EC50 (+4N DNA content endpoint)
Protocol: (§1) Tumor cells were seeded in a 300 μL deep 96-well plate in 150 μL of appropriate complete media at a density of 100,000 cells/well. The cells were treated with AMG 900 (10-point dose range 0.156 to 0.0003 μM) with a final DMSO concentration of 0.2% in media. Two hours prior to harvest time, the cells were pulsed with BrdU at the final concentration of 1:100 in media. After 48 hours, 100 μL of media was removed from each well with a multi-well pipetter. Then the cells were transferred to PCR tube strips in 200 μL of media. The cells were centrifuged at 2000 rpm at 18° C. for 4 minutes and the supernatant was aspirated. The cells were then fixed in 200 μL of ice cold 90% methanol and stored at −20° C. for at least 24 hours before antibody and DNA staining. Fixed cells were centrifuged at 2000 rpm for 4 minutes to remove 90% methanol. Cells were washed with 200 μL of wash buffer and then treated with 100 μL acid buffer at room temperature for 1 hour in the dark. Cells were washed twice with 200 μL wash buffer (until pH was 7.0, confirmed with pH paper). Cells were incubated with an anti-BrdU-Alexa 647 (3 μg/mL) and anti-Caspase 3-FITC (20 μ/well) antibody cocktail in wash buffer for 2 hours at room temperature in the dark. Stained cells were centrifuged and washed with 200 μL of wash buffer. Cells were counterstained with 200 μL of propidium iodide (PI) overnight at 4° C. in the dark. Data was acquired and analyzed by flow cytometer (LSRII). A threshold gate was applied according to DNA content, BrdU, and Caspase-3 positive/negative populations based on DMSO control and low/high drug-treated groups. The data was represented as a percentage of SubG1 DNA content, 4N+ DNA content, BrdU, and Caspase-3 cleavage positive populations. The concentration-response curves and EC50 values were calculated using a 4-parameter equation.

[5] = tested on: Jurkat; experiment: as above; format: cell-based; conditions: Homo sapiens, T cell leukemia, 48 hours without compound withdrawal, read-out: EC50 (+4N DNA content endpoint)
Protocol: as §1

[6] = tested on: RPMI-8226; experiment: as above; format: cell-based; conditions: Homo sapiens; RPMI-8226, Multiple Myeloma; 48 hours without compound withdrawal; read-out: EC50 (+4N DNA content endpoint)
Protocol: as §1

[7] = tested on: K562; experiment: as above; format: cell-based; conditions: Homo sapiens; K562, Chronic myeloid leukemia; 48 hours without compound withdrawal; read-out: EC50 (+4N DNA content endpoint)
Protocol: as §1

[8] = tested on: HL-60; experiment: as above; format: cell-based; conditions: Homo sapiens; HL-60, Promyelocytic leukemia; 48 hours without compound withdrawal; read-out: EC50 (+4N DNA content endpoint)
Protocol: as §1

[9] = tested on: U266-B1; experiment: as above; format: cell-based; conditions: Homo sapiens; U266-B1, Multiple Myeloma; 48 hours without compound withdrawal; read-out: EC50 (+4N DNA content endpoint)
Protocol: as §1

What does the source list for `Cc1csc(-c2nnc(Nc3ccc(Oc4ncccc4-c4ccnc(N)n4)cc3)c3ccccc23)c1` [AMG 900, N-(4-((3-(2-amino-4-pyrimidinyl)-2-pyridinyl)oxy)phenyl)-4-(4-methyl-2-thienyl)-1-phthalazinamine]?
concentrations inhibiting colony formation [1]: ≥ 5 nmol/L; IC50 [2]: 2 to 3 nM; concentrations inhibiting colony formation [3]: ≥ 5 nmol/L; EC50 [4]: 2 nM; EC50 [5]: 1 nM; EC50 [6]: 2 nM; EC50 [7]: 1 nM; EC50 [8]: 2 nM; EC50 [9]: 2 nM
